Paper PMC10058894, “Bioactive C21 Steroidal Glycosides from Euphorbia kansui Promoted HepG2 Cell Apoptosis via the Degradation of ATP1A1 and Inhibited Macrophage Polarization under Co-Cultivation” (Molecules, 2023)
Where two headings read alike, the source gives them in different places.

What was measured:
Format in all cases: cell-based
HepG2 cells = assay: MTT assay, cell viability of HepG2 cells
Experimental: (§1) HepG2 cells (1 × 10^4 cells/well) or RAW264.7 cells ([…]) were incubated in 96T wells for 24 h. Then, HepG2 cells were treated with compounds or Adriamycin for 48 h. In addition, RAW264.7 cells were treated with compounds for 24 h. Then, 0.5% MTT (Sigma, Saint Louis, MO, USA) was added to 20 μL/well for 3.5 h. The supernatant was discarded, and DMSO (150 μL/well) was added to dissolve the purple formazan. Cells were agitated for 15 min at room temperature, and the absorbance at 490 nm was recorded by SpetraMax M2 (Molecular Devices, San Jose, CA, USA).

Huh-7 cells = assay: MTT assay, cell viability of Huh-7 cells; settings: Homo sapiens, Huh-7; MTT; read-out: Huh-7 IC50
Source text: 2. The anti-proliferation of compound 5 on Huh-7 cells
We tested another hepatoma cell line (Huh-7) to validate effect of compound 5. L02 (normal hepatocytes), HepG2 and Hub-7 cells were used to discuss the effect of 5. […]
of 5 on Huh-7 cell was (24.49±[…]) μM (Table S1). The morphology and apoptosis of the cells by reversed microscope and flow cytometry, respectively.
Second, the expression and phosphorylation of ATP1A1 were detected by Western blot analysis in L02, HepG2 and Huh-7 cells. Compared with L02 group, the expression of ATP1A1 was higher in HepG2 and Huh-7 cells, but there was no significant difference in the phosphorylation of ATP1A1 (Figure […]
At last, the effect of 5 on the expression and the phosphorylation of ATP1A1 in Huh-7 cells was […]
the phosphorylation of ATP1A1. The result was consistent with that observed in HepG2 cells (Figure […]
Table S1 Cell viability of Huh-7 cell treated by compound 5

ATP1A1 = ATP1A1 (Homo sapiens, UniProt P05023); assay: ATP1A1 level and location in HepG2 cells (western blot, fluorescence staining, lysosomal colocalization); design: we focused on the regulatory effect of 5 on ATP1A1 in HepG2 cells; endogenous in cells; host or cells: HepG2; settings: HepG2; 5 25 μmol∙L−1, digitonin 10, MK 2206 40, FR 180204 200 nmol∙L−1; western blot
Experimental: HepG2 cells (4 × 10^5 cells/well) were incubated in confocal dishes with DMEM for 24 h and then treated with compounds for 48 h. Then, the cells were treated with 0.1% Triton X-100 for 10 min and washed with PBS five times. Finally, the cells were dyed with anti-ATP1A1 at 4 °C overnight. Nuclear staining with DAPI (1 μg∙mL^−1) was added for 7 min in the dark, and the cells were washed. The stained images were captured under a laser scanning confocal microscope (Nikon A1 AIR MP+, Tokyo, Japan). HepG2 cells (5 × 10^5 cells/well) were incubated in 6-well plates in complete DMEM. Cells were treated with compounds for 24 h. Then, the cells were stained with Annexin V/PI for 30 min at 4 °C in the dark, and apoptosis analysis was carried out by laser scanning confocal microscopy.
Protein samples were prepared using a RIPA lysis buffer. The concentration of the protein was analyzed using a nucleic acid and protein microanalyzer (Molecular Devices, San Jose, CA, USA). SDS–PAGE was performed to separate the proteins, which were then electrotransferred onto a PVDF membrane. The membrane was incubated with antibodies at 4 °C overnight. Next, the membrane was washed and incubated with an HRP-conjugated secondary antibody (Beyotime, BeiJing, China). Finally, signals were detected by the ECL method (Beyotime, BeiJing, China) and analyzed using ImageJ software.

[1] = system: NO production of LPS-stimulated RAW264.7 cells; assay: Nitric oxide production in LPS-stimulated RAW264.7 cells (Griess); settings: LPS (1 μg/mL)-stimulated RAW264.7 cells, 24 h, read-out: RAW264.7 IC50 (inhibition of nitric oxide production)
Experimental: (§2) RAW264.7 cells (8 × 10^4 cells/well) were incubated in 96T wells with DMEM for 24 h and then treated with compounds and LPS (1 μg/mL) for 24 h; this included the control group and LPS group. Then, the cell supernatant was collected for nitric oxide production assay. Next, 100 uL/well PBS was added to 96T wells, then 0.5% MTT (Sigma, Saint Louis, MO, USA) was added to 20 μL/well for 3.5 h. DMSO (150 μL/well) was added to dissolve the purple formazan. Cells were agitated for 15 min at room temperature, and the absorbance at 490 nm was recorded by SpetraMax M2 (Molecular Devices, San Jose, CA, USA). The NO inhibition rate (%) = (ODLPS group − ODcompound group)/(ODLPS group-ODcontrol group) × 100%. The IC50 value refers to the inhibitory of nitric oxide production of LPS-stimulated RAW264.7 cells. Then, 70 uL of each cell supernatant sample was added into a new 96T plate, and Griess A and Griess B were added separately. Then, the absorbance value at 540 nm was detected and then brought into the standard curve to assay the concentration of NO. The cell survival rate (%) = (ODcompound group − ODblank group)/(ODcontrol group − ODblank group) × 100%. The half concentration of the cell death (CC50) value refers to the concentration of compound 5 when 50% of RAW264.7 cells die. The iNOS inhibitor ([…], L-NMMA) was selected as the positive control. The levels of cytokines (IL-1β, IFN-γ, IL-10, TNF-α, and IL-6) in the cell supernatant were determined using an ELISA kit (Novus Biologicals, Shanghai, China, Lot: 834472, 770118, 772051, 486956, 602865). When the process was conducted according to the manufacturer’s instructions, the absorbance was read at 450 nm/570 nm in a SpectraMax 340PC microplate spectrophotometer (Molecular Devices, San Jose, CA, USA).

RAW264.7 cells = assay: MTT assay, cell viability of RAW264.7 cells; settings: half inhibitory of RAW264.7 cells, 24 h
Experimental: as §1, §2

[2] = MTT assay, cell viability of RAW264.7 cells; settings: mouse, half inhibitory of RAW264.7 cells
Experimental: as §1, §2

Row | Compound | IC50 [1] [µM] | IC50 (HepG2 cells; 48 h) [µM] | CC50 (RAW264.7 cells) [µM] | other results
1 | COc1cccc2c1C(=O)c1c(O)c3c(c(O)c1C2=O)C[C@@](O)(C(=O)CO)C[C@@H]3O[C@H]1C[C@H](N)[C@H](O)[C@H](C)O1 [Adr, adriamycin, reference compound] |  |  |  | IC50 (HepG2 cells; Homo sapiens, HepG2, 48 h): 6.93 ± 1.23 µM; IC50 (HepG2 cells; Homo sapiens, HepG2, fractions A–E, 48 h): 5.98 ± 2.06 µg/mL; IC50 (Huh-7 cells): 4.49 ± 0.96 µM
2 | Nc1[nH]nc2nnc(-c3c(-c4ccccc4)nn4ccccc34)cc12 [FR 180204, reference compound] |  |  |  | expression of ATP1A1 (comparison with inhibitors) (ATP1A1): not similarly observed
3 | CC1(C)CC[C@]2(C(=O)O)CC[C@]3(C)C(=CC[C@@H]4[C@@]5(C)C[C@@H](O)[C@H](O)C(C)(C)[C@@H]5CC[C@]43C)[C@@H]2C1 [Compound 9, Maslinic acid] |  |  |  | IC50 ([1]; Mus musculus): 17.4 ± 2.21 µM; CC50 at 24 h [2]: > 50 µM; IC50 (HepG2 cells; Homo sapiens, HepG2, 48 h): > 50 µM
4 | CC(=O)[C@]1(O)CC[C@@]2(O)[C@]1(C)[C@H](OC(=O)/C=C/c1ccccc1)C[C@@H]1[C@@]3(C)CC[C@H](O)CC3=CC[C@]12O [Compound 4, Kidjolanin] | 30.7 ± 4.08 | > 50 | > 50 | 
5 | Caudatin 3-O-β-D-digitoxopyranoside [Compound 12] | > 50 | > 50 | > 50 | 
6 | [H]/N=C(/NC)NCCC[C@H](N)C(=O)O [L-NMMA, NG-monnomycin-L-arginine, reference compound] |  |  |  | IC50 ([1]; Mus musculus): 21.2 ± 3.26 µM; CC50 at 24 h [2]: > 50 µM
7 | CC(=O)[C@]1(O)CC[C@@]2(O)[C@]1(C)[C@H](O)C[C@@H]1[C@@]3(C)CC[C@H](O)CC3=CC[C@]12O [Compound 3, Deacylmetaplexigenin] | > 50 | > 50 | > 50 | 
8 | C[C@@H]1CC[C@@]2(OC1)O[C@H]1[C@@H](O)[C@H]3[C@@H]4CC[C@H]5C[C@@H](O[C@@H]6O[C@H](CO)[C@H](O[C@@H]7O[C@H](CO)[C@@H](O)[C@H](O[C@@H]8OC[C@@H](O)[C@H](O)[C@H]8O)[C@H]7O[C@@H]7O[C@H](CO)[C@H](O)[C@H](O[C@@H]8O[C@H](CO)[C@@H](O)[C@H](O)[C@H]8O)[C@H]7O)[C@H](O)[C@H]6O)[C@H](O)C[C@]5(C)[C@H]4CC[C@]3(C)[C@H]1[C@@H]2C [digitonin, reference compound] |  |  |  | expression of ATP1A1 (comparison with inhibitors) (ATP1A1): not similarly observed
9 | Cynotophylloside J [Compound 8] | 17.4 ± 3.01 | > 50 | > 50 | 
10 | NC1(c2ccc(-c3nc4ccn5c(=O)[nH]nc5c4cc3-c3ccccc3)cc2)CCC1 [MK 2206, reference compound] |  |  |  | expression of ATP1A1 (comparison with inhibitors) (ATP1A1): not similarly observed
11 | Kidjoranin 3-O-β-digitoxopyranoside [Compound 11] | > 50 | > 50 | > 50 | 

Continued, in another order:

Row | IC50 [1] [µM] | IC50 (HepG2 cells; 48 h) [µM] | Compound | CC50 (RAW264.7 cells) [µM] | other results
12 | 2.78 ± 0.44 | 22.7 ± 4.02 | Kidjoranin 3-O-α-diginopyranosyl-(1→4)-β-cymaropyranoside [Compound 10] | 24.1 ± 3.24 | 
13 | > 50 | 46.4 ± 3.09 | Eupokanu G [Compound 1] | > 50 | 
14 | 3.32 ± 0.43 | 27.3 ± 3.48 | Kidjoranin-3-O-β-D-cymaropyranoside [Compound 6] | 35.2 ± 5.12 | 
15 | 9.1 ± 2.27 | 41.1 ± 6.05 | Cynotophylloside B [Compound 2] | > 50 | 
16 | 1.77 ± 0.34 | 12.6 ± 2.98 | CO[C@H]1C[C@@H](O[C@H]2[C@H](C)O[C@H](O[C@H]3[C@@H](C)O[C@H](O[C@H]4[C@@H](OC)C[C@H](O[C@@H]5CC[C@]6(C)C(=CCC(=O)[C@H]6C[C@H](OC(=O)/C=C/c6ccccc6)[C@]6(C)C(=O)CC[C@]6(O)[C@@H](C)OC(C)=O)C5)O[C@@H]4C)C[C@H]3OC)C[C@H]2OC)O[C@H](C)[C@H]1O [Compound 7, Wilfoside G] | 26.2 ± 2.22 | 
